Measured values: ChEMBL document CHEMBL1201862, “PubChem BioAssay data set” (2004)
“And” between values parts separate entries of the source, which are not always exact repeats. Identical values can stand only once. The source made the active and inactive calls.

What was measured:
Perilipin-1/ABHD5 = Perilipin-1/ABHD5 (Homo sapiens, UniProt O60240+Q8WTS1); assay: Luminescence-based biochemical high throughput dose response assay for inhibitors of the interaction of the lipase co-activator protein, abhydrolase domain containing 5 (ABHD5) with perilipin-1 (PLIN1) (2K validation set). [Related pubchem assays (depositor defined):AID493027, AID493057]
Chain of Perilipin-1/ABHD5 (Q8WTS1 whole entry, the tested form may be a part): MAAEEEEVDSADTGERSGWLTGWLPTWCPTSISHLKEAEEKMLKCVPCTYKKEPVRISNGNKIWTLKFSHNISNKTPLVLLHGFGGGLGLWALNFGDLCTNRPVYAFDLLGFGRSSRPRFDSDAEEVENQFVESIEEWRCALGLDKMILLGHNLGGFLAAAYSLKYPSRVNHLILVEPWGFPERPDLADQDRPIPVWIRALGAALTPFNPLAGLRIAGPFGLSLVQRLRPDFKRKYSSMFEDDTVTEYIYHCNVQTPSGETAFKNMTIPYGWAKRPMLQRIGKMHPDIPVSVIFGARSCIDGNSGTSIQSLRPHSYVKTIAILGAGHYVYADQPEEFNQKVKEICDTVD
Chain of Perilipin-1/ABHD5 (O60240 whole entry, the tested form may be a part): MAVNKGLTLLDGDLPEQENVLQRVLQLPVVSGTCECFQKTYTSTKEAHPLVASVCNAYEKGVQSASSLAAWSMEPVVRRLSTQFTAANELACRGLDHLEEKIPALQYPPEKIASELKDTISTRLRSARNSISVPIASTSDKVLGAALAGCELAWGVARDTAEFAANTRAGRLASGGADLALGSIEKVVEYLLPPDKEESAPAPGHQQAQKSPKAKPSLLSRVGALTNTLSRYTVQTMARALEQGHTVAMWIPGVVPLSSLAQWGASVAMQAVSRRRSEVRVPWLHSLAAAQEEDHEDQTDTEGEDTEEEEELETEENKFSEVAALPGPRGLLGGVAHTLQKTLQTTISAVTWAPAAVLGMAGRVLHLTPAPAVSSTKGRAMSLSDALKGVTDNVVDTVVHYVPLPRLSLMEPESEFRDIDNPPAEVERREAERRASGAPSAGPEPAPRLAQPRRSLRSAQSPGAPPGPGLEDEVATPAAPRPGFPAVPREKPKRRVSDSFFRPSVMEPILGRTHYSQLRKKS

[1] = biological target: 1-acylglycerol-3-phosphate O-acyltransferase ABHD5/Perilipin-5 (Homo sapiens, UniProt Q00G26+Q8WTS1); assay: Luminescence-based biochemical high throughput dose response assay for inhibitors of the interaction of the lipase co-activator protein, abhydrolase domain containing 5 (ABHD5) with perilipin-5 (MLDP; PLIN5) (2K validation set). [Related pubchem assays (depositor defined):AID493035, AID493241]
Chain of 1-acylglycerol-3-phosphate O-acyltransferase ABHD5/Perilipin-5 (Q00G26 whole entry, the tested form may be a part): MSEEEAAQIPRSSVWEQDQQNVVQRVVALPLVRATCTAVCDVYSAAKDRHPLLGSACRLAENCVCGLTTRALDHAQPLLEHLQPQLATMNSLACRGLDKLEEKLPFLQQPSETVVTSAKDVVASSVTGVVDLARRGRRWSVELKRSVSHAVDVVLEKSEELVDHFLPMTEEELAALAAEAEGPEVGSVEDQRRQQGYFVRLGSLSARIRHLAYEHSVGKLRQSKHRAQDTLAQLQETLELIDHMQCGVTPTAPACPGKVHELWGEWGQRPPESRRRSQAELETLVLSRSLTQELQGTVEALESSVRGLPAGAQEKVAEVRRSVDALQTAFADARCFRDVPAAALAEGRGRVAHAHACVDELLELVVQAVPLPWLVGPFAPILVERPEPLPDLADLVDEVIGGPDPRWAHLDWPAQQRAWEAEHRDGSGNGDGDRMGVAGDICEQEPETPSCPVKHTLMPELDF
Chain of 1-acylglycerol-3-phosphate O-acyltransferase ABHD5/Perilipin-5 (Q8WTS1 whole entry, the tested form may be a part): as the sequence (Q8WTS1 whole entry, the tested form may be a part) above

Coagulation factor XII = Coagulation factor XII (Homo sapiens, UniProt P00748); type: functional;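 also: activated factor XIIa alpha cleaving a fluorogenic AMC peptide substrate; inhibitor potency from loss of enzyme activity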
Chain of Coagulation factor XII (P00748 20-372 limits assumed): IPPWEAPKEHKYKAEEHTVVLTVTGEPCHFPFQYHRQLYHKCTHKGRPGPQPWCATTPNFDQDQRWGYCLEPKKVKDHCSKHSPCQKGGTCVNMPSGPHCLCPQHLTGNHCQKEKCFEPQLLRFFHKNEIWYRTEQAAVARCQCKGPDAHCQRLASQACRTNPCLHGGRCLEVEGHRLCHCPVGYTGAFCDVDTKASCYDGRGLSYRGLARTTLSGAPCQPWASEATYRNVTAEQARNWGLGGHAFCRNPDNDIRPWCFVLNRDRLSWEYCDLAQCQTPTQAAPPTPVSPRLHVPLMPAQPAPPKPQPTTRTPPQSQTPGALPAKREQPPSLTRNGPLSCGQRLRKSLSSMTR
Chain of Coagulation factor XII (P00748 373-615 limits assumed): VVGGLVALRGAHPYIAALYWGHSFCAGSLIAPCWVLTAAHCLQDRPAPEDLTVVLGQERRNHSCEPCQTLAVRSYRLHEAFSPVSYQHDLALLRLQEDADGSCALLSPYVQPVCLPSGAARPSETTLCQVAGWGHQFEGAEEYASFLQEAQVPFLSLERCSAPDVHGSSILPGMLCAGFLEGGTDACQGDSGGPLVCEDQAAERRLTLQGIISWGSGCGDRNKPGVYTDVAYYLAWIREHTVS

[2] = biological target: Dual specificity protein phosphatase 3 (Homo sapiens, UniProt P51452); assay: SAR VHR1 Fluorescent Assay for In Vitro dose response studies Set 2. [Related pubchem assays (depositor defined):AID1654, AID1661, AID1878]; type: functional
Chain of Dual specificity protein phosphatase 3 (P51452 whole entry): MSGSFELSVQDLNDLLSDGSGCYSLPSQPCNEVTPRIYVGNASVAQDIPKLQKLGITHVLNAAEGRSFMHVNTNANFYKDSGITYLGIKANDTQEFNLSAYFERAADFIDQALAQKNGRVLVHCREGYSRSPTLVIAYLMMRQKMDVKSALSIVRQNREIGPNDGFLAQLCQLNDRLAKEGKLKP

[3] = biological target: T1, Tyrosine-protein phosphatase non-receptor type 7 (Homo sapiens, UniProt P35236); assay: SAR analysis of chemical inhibitors of HePTP using a Fluorescent assay - Set 2. [Related pubchem assays (depositor defined):AID1059, AID1077, AID1661, AID2085, AID521]; type: functional
T1 sequence (P35236 whole entry): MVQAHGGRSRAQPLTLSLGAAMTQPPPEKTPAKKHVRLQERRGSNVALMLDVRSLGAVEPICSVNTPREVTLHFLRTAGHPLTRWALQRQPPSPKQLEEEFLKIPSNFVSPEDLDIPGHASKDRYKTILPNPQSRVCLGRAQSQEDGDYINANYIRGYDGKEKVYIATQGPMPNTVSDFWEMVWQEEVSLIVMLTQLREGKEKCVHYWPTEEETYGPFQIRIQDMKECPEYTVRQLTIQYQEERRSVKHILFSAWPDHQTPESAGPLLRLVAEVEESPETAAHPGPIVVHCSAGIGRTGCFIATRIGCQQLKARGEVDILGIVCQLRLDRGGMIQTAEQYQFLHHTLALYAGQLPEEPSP

[4] = biological target: T2, Alkaline phosphatase, tissue-nonspecific isozyme (Homo sapiens, UniProt P05186); assay: human TNAP enzyme inhibitors, SAR follow-up, biochemical, luminescent, dose response (AID 1056)
T2 sequence (P05186 whole entry): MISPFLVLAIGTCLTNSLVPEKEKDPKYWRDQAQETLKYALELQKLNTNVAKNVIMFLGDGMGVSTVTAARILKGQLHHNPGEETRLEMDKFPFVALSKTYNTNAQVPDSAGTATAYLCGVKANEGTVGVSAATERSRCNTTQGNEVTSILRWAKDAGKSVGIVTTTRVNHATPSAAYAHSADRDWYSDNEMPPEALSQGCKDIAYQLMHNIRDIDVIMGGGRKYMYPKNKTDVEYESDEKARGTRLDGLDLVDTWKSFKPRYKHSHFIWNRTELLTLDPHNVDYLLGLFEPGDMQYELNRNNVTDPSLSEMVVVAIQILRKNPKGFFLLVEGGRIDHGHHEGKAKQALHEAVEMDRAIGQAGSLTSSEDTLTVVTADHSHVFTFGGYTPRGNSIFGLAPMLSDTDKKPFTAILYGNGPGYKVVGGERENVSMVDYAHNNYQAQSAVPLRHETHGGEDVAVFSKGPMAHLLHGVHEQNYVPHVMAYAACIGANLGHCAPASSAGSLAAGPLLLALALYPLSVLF

[5] = biological target: Phosphoethanolamine/phosphocholine phosphatase (Homo sapiens, UniProt Q8TCT1); assay: SAR assay for compounds that inhibit PHOSPHO1. [Related pubchem assays (depositor defined):AID1545, AID1565, AID1574]
Chain of Phosphoethanolamine/phosphocholine phosphatase (Q8TCT1 whole entry): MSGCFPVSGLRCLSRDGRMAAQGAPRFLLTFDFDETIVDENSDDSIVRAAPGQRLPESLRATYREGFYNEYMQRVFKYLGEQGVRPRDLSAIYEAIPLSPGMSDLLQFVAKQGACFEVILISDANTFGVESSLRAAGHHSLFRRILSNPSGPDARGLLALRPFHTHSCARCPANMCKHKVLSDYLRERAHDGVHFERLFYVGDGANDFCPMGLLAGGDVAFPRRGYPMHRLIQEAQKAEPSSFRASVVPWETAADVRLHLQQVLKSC

[6] = biological target: T3, Mannose-6-phosphate isomerase (Homo sapiens, UniProt P34949); assay: PMI enzyme inhibitors, confirmation, biochemical, fluorescence intensity (AID 1535)
T3 sequence (P34949 whole entry): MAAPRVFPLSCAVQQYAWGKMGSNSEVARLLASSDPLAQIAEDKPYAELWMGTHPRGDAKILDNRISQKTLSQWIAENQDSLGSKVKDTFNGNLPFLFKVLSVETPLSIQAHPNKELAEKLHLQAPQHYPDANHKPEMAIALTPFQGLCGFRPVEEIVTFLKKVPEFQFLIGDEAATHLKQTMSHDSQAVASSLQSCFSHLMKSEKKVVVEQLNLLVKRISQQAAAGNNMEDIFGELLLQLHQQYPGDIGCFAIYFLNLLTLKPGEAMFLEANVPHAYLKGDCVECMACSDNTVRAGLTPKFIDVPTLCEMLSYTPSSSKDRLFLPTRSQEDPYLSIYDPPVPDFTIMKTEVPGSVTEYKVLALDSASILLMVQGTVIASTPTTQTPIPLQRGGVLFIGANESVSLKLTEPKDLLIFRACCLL

Phosphomannomutase 2 = biological target: T4, Phosphomannomutase 2 (Homo sapiens, UniProt O15305); assay: Counter screen SAR assay for PMM2 inhibitors via a fluorescence intensity assay. [Related pubchem assays (depositor defined):AID1545, AID1574]
T4 sequence (O15305 whole entry): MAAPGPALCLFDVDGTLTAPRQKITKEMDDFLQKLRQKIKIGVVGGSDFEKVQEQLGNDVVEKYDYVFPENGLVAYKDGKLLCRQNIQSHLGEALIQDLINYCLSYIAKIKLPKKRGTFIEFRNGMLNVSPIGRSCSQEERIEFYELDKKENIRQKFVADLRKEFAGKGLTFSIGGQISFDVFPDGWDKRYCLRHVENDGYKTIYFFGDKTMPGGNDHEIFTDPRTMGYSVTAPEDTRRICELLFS

Mucolipin-3 = biological target: T5, Mucolipin-3 (Homo sapiens, UniProt Q8TDD5); assay: Fluorescence counterscreen assay for […] agonists: dose response cell-based high-throughput screening assay to identify agonists of the transient receptor potential channel ML3 (TRPML3). [Related pubchem assays: 1424, 1448 ]; type: functional
T5 sequence (Q8TDD5 whole entry): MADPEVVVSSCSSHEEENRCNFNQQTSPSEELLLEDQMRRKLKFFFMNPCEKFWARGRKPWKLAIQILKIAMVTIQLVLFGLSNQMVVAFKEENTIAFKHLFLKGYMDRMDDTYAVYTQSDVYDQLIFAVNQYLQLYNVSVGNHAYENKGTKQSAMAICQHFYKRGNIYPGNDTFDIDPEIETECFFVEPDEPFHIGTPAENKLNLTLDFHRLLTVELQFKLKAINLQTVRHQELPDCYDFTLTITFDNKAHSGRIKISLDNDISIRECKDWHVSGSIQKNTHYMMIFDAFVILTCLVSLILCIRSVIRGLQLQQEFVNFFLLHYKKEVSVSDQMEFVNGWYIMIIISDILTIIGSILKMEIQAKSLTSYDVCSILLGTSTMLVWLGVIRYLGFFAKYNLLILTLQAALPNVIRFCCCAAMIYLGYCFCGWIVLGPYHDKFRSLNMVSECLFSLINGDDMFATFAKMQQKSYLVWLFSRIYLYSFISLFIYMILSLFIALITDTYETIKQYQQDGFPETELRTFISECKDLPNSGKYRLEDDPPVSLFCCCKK

[7] = biological target: T6, Probable nicotinate-nucleotide adenylyltransferase (Staphylococcus aureus (strain N315), UniProt P65502); type: functional, Staphylococcus aureus subsp. aureus N315; settings: read-out: IC50_Mean;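 as to IC50 Mean: confirmatory dose-response retesting of NadD inhibitor hits first found in an ultra-high-throughput screen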
T6 sequence (P65502 whole entry): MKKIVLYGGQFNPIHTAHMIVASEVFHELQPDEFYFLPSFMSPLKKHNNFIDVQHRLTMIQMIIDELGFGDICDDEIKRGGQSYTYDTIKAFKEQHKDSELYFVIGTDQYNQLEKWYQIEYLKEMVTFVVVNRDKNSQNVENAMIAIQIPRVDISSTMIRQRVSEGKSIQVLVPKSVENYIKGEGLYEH

Ion channel NompC = Ion channel NompC (Danio rerio, UniProt Q7T1G6); assay: Dose response cell-based high-throughput screening assay for agonists of the transient receptor potential channel N1 (TRPN1). [Related pubchem assays (depositor defined):AID1424, AID1448]; type: functional
[8] = biological target: T6, Probable nicotinate-nucleotide adenylyltransferase; type: functional, Staphylococcus aureus subsp. aureus N315
SUMO-activating enzyme = SUMO-activating enzyme (Homo sapiens, UniProt Q9UBT2); assay: SUMOylation inhibitor hit validation, confirmation, SUMOylation inhibitor project, biochemical, AlphaScreen (AID 2018); type: functional
Chain of SUMO-activating enzyme (Q9UBE0 whole entry): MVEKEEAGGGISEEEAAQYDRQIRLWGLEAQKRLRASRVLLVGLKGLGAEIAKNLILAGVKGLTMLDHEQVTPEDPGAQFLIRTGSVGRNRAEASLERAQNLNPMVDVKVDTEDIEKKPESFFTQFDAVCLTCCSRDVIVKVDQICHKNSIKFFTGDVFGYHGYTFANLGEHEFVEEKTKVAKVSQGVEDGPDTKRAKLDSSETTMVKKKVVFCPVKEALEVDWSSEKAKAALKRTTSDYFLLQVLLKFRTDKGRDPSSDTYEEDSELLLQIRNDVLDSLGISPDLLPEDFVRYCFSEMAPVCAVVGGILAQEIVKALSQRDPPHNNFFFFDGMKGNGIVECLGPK
Chain of SUMO-activating enzyme (Q9UBT2 whole entry): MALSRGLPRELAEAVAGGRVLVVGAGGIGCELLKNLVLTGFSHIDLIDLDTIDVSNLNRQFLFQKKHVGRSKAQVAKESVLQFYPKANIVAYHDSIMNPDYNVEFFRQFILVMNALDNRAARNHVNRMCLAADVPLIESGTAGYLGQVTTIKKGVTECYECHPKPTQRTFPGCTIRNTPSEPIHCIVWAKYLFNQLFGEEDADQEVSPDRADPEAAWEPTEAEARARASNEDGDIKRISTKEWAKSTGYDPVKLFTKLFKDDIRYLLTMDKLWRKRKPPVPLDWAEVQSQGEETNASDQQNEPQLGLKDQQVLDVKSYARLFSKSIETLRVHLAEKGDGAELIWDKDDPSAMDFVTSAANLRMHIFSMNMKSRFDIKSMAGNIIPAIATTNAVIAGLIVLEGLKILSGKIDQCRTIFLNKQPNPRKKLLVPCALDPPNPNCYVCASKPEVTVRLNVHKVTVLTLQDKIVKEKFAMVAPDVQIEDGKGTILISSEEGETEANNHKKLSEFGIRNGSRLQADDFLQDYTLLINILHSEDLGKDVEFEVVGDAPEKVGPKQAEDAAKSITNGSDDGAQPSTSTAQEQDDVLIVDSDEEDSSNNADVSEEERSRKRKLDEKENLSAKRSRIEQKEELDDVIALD

[9] = HepG2 cell cytotoxicity, dose response, cytotoxicity control for non-replicating M. tuberculosis project (AID 489018); type: functional; settings: Mycobacterium tuberculosis
cells = type: functional
[10] = Vero E6 cell cytotoxicity, dose response, cytotoxicity control for non-replicating M. tuberculosis project, secondary assay (AID 492998); type: functional, VeroE6; settings: Vero C1008
[11] = THP-1 cell cytotoxicity, dose response, cytotoxicity control for non-replicating M. tuberculosis project (AID 489025); type: functional
[12] = biological target: DNA dC->dU-editing enzyme APOBEC-3G (Homo sapiens, UniProt Q9HC16); type: functional;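 also: Dose-response counterscreen measuring inhibition of APOBEC3G DNA deaminase activity, run while confirming APOBEC3A inhibitors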
Chain of DNA dC->dU-editing enzyme APOBEC-3G (Q9HC16 whole entry): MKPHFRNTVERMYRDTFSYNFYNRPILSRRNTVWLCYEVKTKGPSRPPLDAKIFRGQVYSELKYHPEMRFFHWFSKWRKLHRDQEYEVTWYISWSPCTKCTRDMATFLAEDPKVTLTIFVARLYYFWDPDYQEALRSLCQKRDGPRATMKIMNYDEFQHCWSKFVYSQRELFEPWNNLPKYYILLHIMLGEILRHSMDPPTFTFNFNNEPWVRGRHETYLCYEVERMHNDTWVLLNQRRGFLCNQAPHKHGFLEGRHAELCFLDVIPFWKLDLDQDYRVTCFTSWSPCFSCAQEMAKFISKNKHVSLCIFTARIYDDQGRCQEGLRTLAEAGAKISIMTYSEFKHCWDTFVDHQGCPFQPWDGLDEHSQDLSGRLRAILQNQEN

[13] = biological target: DNA dC->dU-editing enzyme APOBEC-3A (Homo sapiens, UniProt P31941); assay: Dose Response confirmation of small molecule APOBEC3A DNA Deaminase Inhibitors via a fluorescence-based single-stranded DNA deaminase assay. [Related pubchem assays (depositor defined):AID493011, AID493024]; type: functional
Chain of DNA dC->dU-editing enzyme APOBEC-3A (P31941 whole entry): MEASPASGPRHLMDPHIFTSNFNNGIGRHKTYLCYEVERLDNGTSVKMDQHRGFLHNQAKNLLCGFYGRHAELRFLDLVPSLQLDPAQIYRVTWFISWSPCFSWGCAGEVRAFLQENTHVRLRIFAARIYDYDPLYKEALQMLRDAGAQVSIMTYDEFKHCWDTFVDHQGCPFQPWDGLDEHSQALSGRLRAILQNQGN

[14] = biological target: T7, Short transient receptor potential channel 4 (Mus musculus, UniProt Q9QUQ5); assay: mouse TRPC4 channel inhibitors, dose response, cell-based, HEK293 TRPC4/mu-opioid, Fluo-4 calcium (AID 434942); type: functional;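 also: potency of inhibitors blocking the TRPC4 calcium response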
T7 sequence (Q9QUQ5 whole entry): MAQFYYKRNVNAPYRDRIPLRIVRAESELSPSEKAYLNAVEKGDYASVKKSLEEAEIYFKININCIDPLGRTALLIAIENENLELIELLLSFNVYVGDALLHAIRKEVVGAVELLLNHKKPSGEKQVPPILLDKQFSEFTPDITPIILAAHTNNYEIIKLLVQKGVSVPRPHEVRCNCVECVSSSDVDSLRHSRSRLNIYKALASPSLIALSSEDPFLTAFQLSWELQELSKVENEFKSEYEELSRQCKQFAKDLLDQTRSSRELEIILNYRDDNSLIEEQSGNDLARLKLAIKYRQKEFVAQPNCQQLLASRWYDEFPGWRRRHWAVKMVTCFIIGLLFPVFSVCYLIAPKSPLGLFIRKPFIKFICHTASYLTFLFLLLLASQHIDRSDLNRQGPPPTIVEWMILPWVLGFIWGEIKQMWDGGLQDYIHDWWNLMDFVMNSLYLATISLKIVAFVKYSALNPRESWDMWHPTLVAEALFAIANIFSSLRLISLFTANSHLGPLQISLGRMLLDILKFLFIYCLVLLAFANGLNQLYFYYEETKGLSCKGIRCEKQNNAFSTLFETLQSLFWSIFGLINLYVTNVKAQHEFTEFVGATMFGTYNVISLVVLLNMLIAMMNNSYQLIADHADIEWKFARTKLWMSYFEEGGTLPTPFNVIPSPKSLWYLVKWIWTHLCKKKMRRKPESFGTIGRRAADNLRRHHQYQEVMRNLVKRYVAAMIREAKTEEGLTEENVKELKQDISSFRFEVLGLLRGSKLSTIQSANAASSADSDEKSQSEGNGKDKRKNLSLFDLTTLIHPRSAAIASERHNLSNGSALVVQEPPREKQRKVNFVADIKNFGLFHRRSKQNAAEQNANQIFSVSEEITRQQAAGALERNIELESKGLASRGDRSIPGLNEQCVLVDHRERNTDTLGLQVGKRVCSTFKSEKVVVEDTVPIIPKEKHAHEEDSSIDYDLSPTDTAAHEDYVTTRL

[15] = biological target: T8, Carboxy-terminal domain RNA polymerase II polypeptide A small phosphatase 1 (Homo sapiens, UniProt Q9GZU7); assay: inhibitors of CTDSP1, concentration-response testing, biochemical assay, absorbance-based, actives from ultra-high-throughput screening (AID 540297); type: functional
T8 sequence (Q9GZU7 whole entry): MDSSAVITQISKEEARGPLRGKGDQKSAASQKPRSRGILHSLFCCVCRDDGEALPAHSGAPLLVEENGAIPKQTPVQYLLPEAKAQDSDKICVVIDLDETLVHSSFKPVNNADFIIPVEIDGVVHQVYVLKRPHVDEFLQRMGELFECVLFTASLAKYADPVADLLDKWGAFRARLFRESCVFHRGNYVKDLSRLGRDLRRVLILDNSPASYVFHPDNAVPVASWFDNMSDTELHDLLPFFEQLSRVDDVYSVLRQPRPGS

N#C/C(=C/c1ccccc1)C(=O)NCc1ccccc1
IC50 (Perilipin-1/ABHD5): 13.1 µM (inactive)
IC50 [1]: 17.2 µM (inactive)

CC(C)=CCC/C(C)=C/CC/C(C)=N/O
IC50 (Coagulation factor XII): > 50 µM (inactive)

COc1ccc(OC)c(C(=S)NCc2ccc(F)cc2)c1
IC50 [2]: 13.5 µM (active)
IC50 [3]: 8.78 µM (active)

Cc1ccc(C)c(-n2sc3cc(F)ccc3c2=O)c1
IC50 [4]: > 100 µM (inactive)
IC50 [5]: 4.1 µM (inactive)
IC50 [6]: 0.985 µM (active)
IC50 (Phosphomannomutase 2): 9.95 µM (active) and 4.57 µM (active)

COc1ccc(C(=O)NNC(=S)NC(=O)c2cc(-c3ccccc3)nc3ccccc23)cc1
EC50 (Mucolipin-3): > 29.9 µM (not active)
IC50 [7]: 26.4 µM (active)
EC50 (Ion channel NompC): > 29.9 µM (inactive)
IC50 [8]: 7.14 µM (active)

CCOc1ccc(-n2c(SCC(=O)Nc3ccc(CC)cc3)nc3nnc(C)c-3c2N)cc1
IC50 (SUMO-activating enzyme): 36.9 µM (active)

O=C(NC(=S)N1CCc2ccccc21)c1ccccc1
CC50 [9]: > 20 µM (active)
IC50 (cells): 9.86 µM (active)
CC50 [10]: > 20 µM (active)
CC50 [11]: > 40 µM (active)

CCN1C(NCc2cc(OC)c(OC)c(OC)c2)=N[C@@H](c2ccccc2)C(C(=O)OC)=C1C
IC50 [12]: 3.54 µM (active)
IC50 [13]: 4.15 µM (active)

COc1ccc(C(c2nnnn2C2CCCC2)N2CCN(c3ccccc3)CC2)cc1 (centres undefined)
EC50 [14]: 5.31 µM (active)

Cc1ccc(C2=NOC(=O)/C2=C\C=C\c2ccccc2)cc1
IC50 (Perilipin-1/ABHD5): 1.23 µM (active)
IC50 [1]: 1.12 µM (active)

CNS(=O)(=O)c1cc(C(=O)O)ccc1OC
IC50 (Coagulation factor XII): > 50 µM (inactive)

C=CC#CC1(O)CC(C)[N+](C)(C)CC1C (centres undefined)
IC50 [12]: 5.58 µM (active)
IC50 [13]: 1.97 µM (active)
IC50 [15]: 7.57 µM (active)

CCCOc1ccc(C(=S)NCc2ccc(F)cc2)cc1
IC50 [2]: 15.1 µM (active)
IC50 [3]: 19.5 µM (active)
